Tests used:
[1] = tested on: hepatitis B virus; assay: Mouse venous hypertension model (genotype B), core antigen (HBeAg) in peripheral blood by ELISA; assay type: in vivo, Wild-type mice (C57/B6); conditions: 50 mg/kg/day oral gavage, 9th day after infection, Figure 4
Method: . On the 9th day after infection, about 100µl/mouse of blood was harvested from the tail to separate serum. The concentration of hepatitis B virus core antigen (HBeAg) in peripheral blood was measured by ELISA. The OD value at 450nm was measured on a microplate reader.

[2] = tested on: hepatitis B virus; assay: HBV genomic DNA replication in HepG2 cells transfected with linear HBV genomic DNA, quantitative PCR of circular HBV DNA; assay type: cell-based, hepatitis B virus (genotype B); conditions: 10µM, HepG2, 96 hours, Figure 1
Method: After 96 hours, cells were divided into two groups, with genomic DNA extracted from one. From the other, free DNA was extracted using HIRT extraction, and linear DNA was removed using DNA exonuclease (NEB). Circular HBV DNA and genomic GAPDH were detected by quantitative PCR. The highest value of circular HBV DNA was defined as 100% (n=5).

[3] = tested on: HepG2, HCT-116, Hela, A549, MCF7, MKN45, THP-1, Huh7, and 293 cells; assay: Cytotoxicity test, MTT assay, summary over the nine kinds of cells; assay type: cell-based; conditions: 72h
Method: […]. Various cells in the logarithmic growth phase were seeded in 96-well plates at 6,000 cells/well and cultured for 24h. […]. The dosage of DMSO in the solvent control group was based on the maximum dose of 0.1% used in the test group, with four duplicate wells for each concentration. Cells were treated with the drug for 72h and then added with 20µL 5 mg/mL MTT, cultured at 37°C for 4h, after added 100 µ L triple solution (10% SDS, 5% isobutanol, 12 mM hydrochloric acid), 96-well cell culture plate was placed in an incubator containing 5% CO2 at 37 ± 1°C overnight. OD value at 570nm was measured on a microplate reader.
The inhibition rate of tumor cell growth was calculated according to the following formula: Inhibition rate(%) = [(OD570controlwell−OD570dosewell)/OD570controlwell] × 100. [formula]

[4] = tested on: B and T cells; assay: Immune cells in blood of HBV-infected mice, flow cytometry; conditions: 4, 8, 16 mg/kg/time, twice a day, oral gavage, day 9, Figure 19
Method: (§1) Six-week-old male C57 mice were rapidly injected with 10µg/mouse of viral genomic DNA (genotype A) by tail vein injection in a short period. Viral infection was established using a venous hypertension model and randomly divided into groups. […] At the same time, a blank control was set up, and oral administration in uninfected mice was equivalent to the model group.
On day 9, mice were sacrificed to collect blood stained with flow antibody after fission red. All cells were treated with anti-FcγRIII/ II (purchased from BD Biosciences) in PBS for 30 min. CD3e-FITC (purchased from BD Biosciences). CD4-PE, CD8a-APC-Vio770, and CD34-FITC (GE). CD19-APC, CD11b-PE-Cyanine7, and CD117-efflor 450 (purchased from eBioscience). After staining, the samples were suspended using 500µL PBS and analyzed by BD Aria III flow cytometer.

[5] = tested on: hepatitis B virus; assay: HBsAg in culture supernatant of HepAD38 cells, ELISA; assay type: cell-based; conditions: 10µM and 5µM, HepAD38, 24h, 48h, 96h, 144h, Figure 13
Method: Two groups of controls were also set up, one with only solvents (DMF) and one with antibiotics (tetracycline). Three replicate wells were set up for all experiments. 500µL of culture supernatant was taken at 24h, 48h, 96h, and 144h after adding the test article for ELISA to detect HBsAg concentration (Figure 13).

[6] = tested on: hepatitis B virus; assay: Mouse venous hypertension model (genotype A), serum HBsAg by ELISA, dose groups (Example 12); conditions: dose higher than 50 mg/day (converted adult dose), once a day oral gavage, seven days of administration, Figure 15
Method: as §1
On days 1, 3, and 7 of administration, an appropriate amount of blood was collected from the tail vein of mice in each group. On day 9, the remaining peripheral blood was collected after the mice were sacrificed. All blood samples were centrifuged to obtain serum, divided into two portions. One was used to detect the concentration of HBsAg by ELISA, and the other was used to detect the enzyme activity of alanine aminotransferase (ALT) by alanine aminotransferase kit (colorimetric method) (Nanjing Jiancheng Bioengineering Institute).

[7] = tested on: hepatitis B virus; assay: HBV replication in HepAD38 cell model, qPCR of cccDNA, core particle DNA and supernatant HBV DNA; assay type: cell-based; conditions: 20µM, 10µM and 5µM, HepAD38, 96 and 144 hours, Figures 10, 11, 12
Method: 2×10^5 HepAD38 cells that were stably expressing HBV with good growth status were seeded in collagen pretreated 6-well plates, and the corresponding concentrations of the test substances were added: final concentration of 1µM for entecavir (ETV) and a final concentration of 20µM, 10µM, and 5µM for amlexanox (AML), respectively. Two groups of controls were also set up, one with solvent only (DMF) and one with antibiotic only (tetracycline). Three replicate wells were set for all groups. After 96 hours and 144 hours of test article addition, 500 µL of cell culture supernatant was used to extract DNA from the supernatant, and the amount of HBV DNA in the supernatant was detected by qPCR. After 144h, cells were harvested and lysed in Lysis buffer A (50 mM Tris-HCl, pH 7.4, 1 mM EDTA, and 1% NP-40). The supernatant and pellet of the lysates were collected, respectively, from which DNA was extracted and quantified by quantitative PCR. Linear DNA was removed by DNA exonuclease (NEB) after DNA extraction from the cell lysate pellet, so only circular DNA (cccDNA) was examined (Figure 10). Viral DNA in the supernatant of cell lysates was defined as core particle DNA (Figure 11).

[8] = tested on: subtype A hepatitis B virus; assay: Mouse venous hypertension model (genotype A), HBeAg in peripheral blood by ELISA; assay type: in vivo, Wild-type mice (C57/B6); conditions: twice a day, oral gavage, 9th day after infection, Figure 8
Method: On the 9th day after infection, about 100µl of blood was harvested from each animal, serum was separated, and the concentration of HBeAg in peripheral blood was measured by ELISA.

[9] = tested on: hepatitis B virus; assay: HBV core antigen (HBeAg) in culture supernatant of HepAD38 cells, ELISA; assay type: cell-based; conditions: 16µM to 2µM, HepAD38, 24h to 144h, Figure 14
Method: A solvent-only control group (DMF) was also set up. Three replicate wells were set up for all experiments. 500µL of culture supernatant was taken at 24h, 48h, 72h, 96h, and 144h after adding the test article for ELISA to detect HBV core antigen (HBeAg) concentration.

[10] = tested on: hepatitis B virus; assay: Mouse venous hypertension model (genotype B), HBV genomic DNA in liver by fluorescence quantitative PCR; assay type: in vivo, Wild-type mice (C57/B6); conditions: 50 mg/kg/day oral gavage, 11th day after infection, Figure 5
From the text: . On the 11th day after infection, the mice were sacrificed, the livers of the mice were isolated, DpnI was transferred to exclude source DNA, and HBV genomic DNA in the livers of the mice was detected by fluorescence quantitative PCR (n=5).

[11] = tested on: hepatitis B virus; assay: HBsAg in culture supernatant of HBV DNA-transfected HepG2 cells, ELISA; conditions: 10µM, HepG2, 96h after transfection, Figure 2
Method: Hepatocyte HepG2 cells with good growth status were seeded in 6-well plates at 10^6 cells/well and, after being left overnight, 2µg of linear HBV viral genomic DNA (genotype B) was transfected into each well using lipofectamine 2000 to establish a viral infection cell model. […] An equal volume of DMSO (1/1000, v/v) was added to the control group. Forty-eight hours after transfection, cells from each well were passaged into one 6cm culture plate. After transfection, HBsAg levels in the culture supernatant were quantified by ELISA 96h.
Well-grown hepatocyte HepG2 cells 10^6 cells/well were seeded in 6-well plates, and after overnight, 2µg of linear HBV viral genomic DNA (genotype B) was transfected per well using Lipofectamine 2000. […] An equal volume of DMSO (1/1000, v/v) was added to the control group. Forty-eight hours after transfection, cells from each well were passaged into one 6cm culture plate. HBV surface antigen (HBsAg) in the culture medium was detected by ELISA 96h after transfection.

[12] = tested on: 3TC/ETV-resistant HBV; assay: Mouse venous hypertension model, serum HBsAg by ELISA (Example 13, Figure 17); assay type: in vivo, male C57 mice; conditions: 150 mg/day (converted adult dose, 22.8 mg/kg/day in mice), oral gavage, five days
From the text: The specific method was based on the instructions of the ELISA kit.

CC(C)c1ccc2oc3nc(N)c(C(=O)O)cc3c(=O)c2c1 [amlexanox, Amlexanox]
concentration of hepatitis B virus core antigen (HBeAg) in peripheral blood [1]: reduced hepatitis B virus core antigen levels in a mouse model of venous hypertension, and its effect was comparable to that of lamivudine | Circular HBV DNA (hepatitis B virus genomic DNA replication) [2]: inhibits hepatitis B virus genomic DNA replication in cell models with effects comparable to existing clinical drugs | cytotoxicity ([3]; nine kinds of cells, below the concentration of 50 µM): no obvious cytotoxicity | cytotoxicity ([3]; remaining five cells (other than MKN45, HCT-116, MCF7, Huh7), 100 µM): no significant cytotoxicity | effect on immune cells (B and T cells) in blood [4]: had an inhibitory effect on both B and T cells, and the inhibitory effect was dose-dependent | HBsAg concentration in culture supernatant [5]: significantly reduce HBsAg level | concentration of HBsAg in serum [6]: significantly reduced surface antigen (HBsAg) levels | HBV DNA (cccDNA, core particle DNA, viral DNA in cell culture supernatant) [7]: significantly inhibits hepatitis B virus replication in the HepAD38 cell model | concentration of HBeAg in peripheral blood ([8]; 16 mg/kg/time): still effective | concentration of HBeAg in peripheral blood, dose-response relationship ([8]; 4, 8 and 16 mg/kg/time): its ability to inhibit hepatitis B virus is enhanced in a mouse model of venous hypertension | HBV core antigen (HBeAg) concentration in culture supernatant [9]: significantly reduce HBsAg level and core antigen level | HBV genomic DNA in the livers of the mice [10]: can significantly inhibit the load of viral DNA, and its effect is not lower than that of clinically used nucleotide-like drugs lamivudine and entecavir | HBsAg levels in the culture supernatant [11]: reduces HBsAg levels in cell models, and its effect is superior to that of existing clinical drugs | HBsAg level in the blood [12]: significantly decreased
